The source of these data is patent EP4667464A1 (Cyrus Therapeutics Inc., priority 2023, dated 2024).

Read-outs that look alike come from different tables or passages of the source.

One assay addresses T1, SOS1 (Homo sapiens, UniProt Q07889).
T1 construct: HIS-SOS1cat (160 nM; Cytoskeleton, US); His (N); purchased Cytoskeleton
T1 sequence (Q07889 564-1049 limits assumed): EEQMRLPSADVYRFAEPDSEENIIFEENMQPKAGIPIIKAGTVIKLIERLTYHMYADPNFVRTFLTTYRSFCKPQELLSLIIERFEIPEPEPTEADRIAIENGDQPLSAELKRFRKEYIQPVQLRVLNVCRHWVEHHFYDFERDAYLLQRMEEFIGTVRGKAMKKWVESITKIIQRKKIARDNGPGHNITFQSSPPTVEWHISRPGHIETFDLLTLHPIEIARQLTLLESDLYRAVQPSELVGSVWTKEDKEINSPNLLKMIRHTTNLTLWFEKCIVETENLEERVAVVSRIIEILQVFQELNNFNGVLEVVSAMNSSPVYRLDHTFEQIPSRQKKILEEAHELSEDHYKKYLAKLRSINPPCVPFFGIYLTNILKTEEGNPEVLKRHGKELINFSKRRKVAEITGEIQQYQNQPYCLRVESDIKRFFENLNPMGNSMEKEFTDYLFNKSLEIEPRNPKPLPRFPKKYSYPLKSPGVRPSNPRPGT
In words: SOS-catalyzed nucleotide exchange assay (HTRF, SOS1-mediated GTP loading of KRAS G12D). In kind it is biochemical.

Another assay addresses T2, KRAS G12C::SOS1 (Homo sapiens, UniProt Q07889).
T2 construct: purchased CISBIO 64KRASG12PEH
T2 sequence (Q07889 1-1333): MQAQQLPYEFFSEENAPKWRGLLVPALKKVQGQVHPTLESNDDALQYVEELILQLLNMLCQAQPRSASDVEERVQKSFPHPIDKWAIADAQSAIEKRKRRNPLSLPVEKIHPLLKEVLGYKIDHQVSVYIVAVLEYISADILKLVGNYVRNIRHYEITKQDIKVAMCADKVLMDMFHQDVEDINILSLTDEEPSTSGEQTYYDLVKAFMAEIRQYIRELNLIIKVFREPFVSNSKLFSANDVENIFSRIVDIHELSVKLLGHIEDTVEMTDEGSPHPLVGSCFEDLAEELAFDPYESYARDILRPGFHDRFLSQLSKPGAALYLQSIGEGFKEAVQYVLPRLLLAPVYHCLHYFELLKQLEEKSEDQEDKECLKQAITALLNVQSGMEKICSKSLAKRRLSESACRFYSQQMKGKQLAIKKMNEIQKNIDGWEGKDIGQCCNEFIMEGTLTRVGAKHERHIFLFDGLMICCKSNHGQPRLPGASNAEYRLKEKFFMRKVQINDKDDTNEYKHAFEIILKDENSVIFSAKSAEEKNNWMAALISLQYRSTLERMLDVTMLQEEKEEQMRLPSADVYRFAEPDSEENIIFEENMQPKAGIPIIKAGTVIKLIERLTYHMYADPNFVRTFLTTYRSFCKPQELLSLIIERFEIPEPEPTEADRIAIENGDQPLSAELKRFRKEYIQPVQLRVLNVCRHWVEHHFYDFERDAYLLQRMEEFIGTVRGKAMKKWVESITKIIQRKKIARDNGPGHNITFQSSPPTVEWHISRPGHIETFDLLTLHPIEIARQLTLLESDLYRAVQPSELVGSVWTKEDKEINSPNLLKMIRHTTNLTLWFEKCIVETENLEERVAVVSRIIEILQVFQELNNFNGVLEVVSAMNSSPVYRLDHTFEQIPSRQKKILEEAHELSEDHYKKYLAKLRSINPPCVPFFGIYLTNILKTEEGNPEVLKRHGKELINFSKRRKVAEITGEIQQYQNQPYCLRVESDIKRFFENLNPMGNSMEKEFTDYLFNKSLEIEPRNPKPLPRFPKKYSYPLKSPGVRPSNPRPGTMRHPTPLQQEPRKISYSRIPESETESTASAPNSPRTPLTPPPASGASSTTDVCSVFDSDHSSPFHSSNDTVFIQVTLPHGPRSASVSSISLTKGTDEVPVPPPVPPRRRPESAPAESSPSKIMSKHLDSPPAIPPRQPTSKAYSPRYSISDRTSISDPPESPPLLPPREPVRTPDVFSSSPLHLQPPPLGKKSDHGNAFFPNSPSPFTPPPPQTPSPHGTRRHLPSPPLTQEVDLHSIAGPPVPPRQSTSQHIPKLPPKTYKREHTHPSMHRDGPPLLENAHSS
In words: KRAS G12C::SOS1 protein-protein interaction (PPI) inhibition assay (HTRF). The format is binding. Put shortly: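 Compounds, at eight 3-fold dilutions from 3 µM, were mixed with GTP-loaded Tag1-KRAS G12C, Tag2-SOS1 and a terbium-cryptate donor plus XL665 acceptor antibody pair. After 2 h at room temperature, time-resolved FRET reported the KRAS–SOS1 interaction.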
(TR-FRET usually uses a lanthanide donor and a delayed reading to cut background.)

Assay [1] relates to lung cancer cell line NCI-H358 having the KRAS G12C variant. Briefly: Cancer cell growth inhibition, 3D spheroids (CellTiter-Glo 3D). In kind it is cell-based. The conditions noted are these: read-out: H358 cell viability. As for the experimental part: Thereafter, the plate with the cells cultured was adapted to room temperature for 10 minutes, and then 50 µL of CellTiter-Glo® 3D Cell Viability Assay (PROMEGA, G9683) solution was dispensed, and reacted on a horizontal stirrer at a speed of 300 RPM for 30 minutes to induce the cell lysis. […] Thereafter, based on the measured values, the degree of cell growth in the well treated with each compound was calculated when the final cell density value of the well not treated with the test substance was set to 100%.
A general note: Cellular ATP, detected with luciferase, serves as a proxy for viable cell number.

Where [2] appears, read: GST-KRAS G12D, HIS-SOS1cat, compound 128 pM to 10 µM, read-out: SOS-catalyzed nucleotide exchange assay.
Setting [3] is: 8 concentrations from 3 µM, three replicates, read-out: KRAS G12C::SOS1 PPI.
The mark [4] stands for this setting: Homo sapiens, NCI-H358, 120 h, 3D spheroids, 0.002-10 µM, 5 days.

As for `C[C@@H](NC(=O)c1ccc(=O)n(-c2cncc(-c3ccnn3C)c2)n1)c1cccc(C(F)(F)F)c1F` [Example 1-17, N-[(1R)-1-[2-fluoro-3-(trifluoromethyl)phenyl]ethyl]-1-[5-(2-methylpyrazol-3-yl)-3-pyridyl]-6-oxo-pyridazine-3-carboxamide], the IC50 is 0.05 to 0.15 µM at SOS1 (setting [2]), over 0.15 µM on KRAS G12C::SOS1 (setting [3]) and under 1 µM in assay [1] (setting [4]).

For the molecule `C[C@@H](NC(=O)c1ccc(=O)n(-c2cnc(F)c(-c3cnnn3C)c2)n1)c1cccc(C(F)(F)F)c1F` [Example 6], the IC50 against SOS1 is 0.05 to 0.15 µM; on KRAS G12C::SOS1 it was 0.05 to 0.15 µM; in assay [1] (Homo sapiens, NCI-H358, 120 h), under 1 µM.

As for `C[C@@H](NC(=O)c1cc(CO)c(=O)n(-c2cncc(-c3cnnn3C3CC3)c2)n1)c1cccc(C(F)(F)F)c1F` [Example 6-3], the IC50 was under 0.05 µM on SOS1; under 0.05 µM against KRAS G12C::SOS1; under 1 µM in assay [1] (Homo sapiens, NCI-H358, 120 h).

For `Cc1cc(C(=O)N[C@H](C)c2cc(N)cc(C(F)(F)F)c2F)nn(-c2cncc(-c3cnnn3C)c2)c1=O` [Example 2-5, N-[(1R)-1-[5-amino-2-fluoro-3-(trifluoromethyl)phenyl]ethyl]-5-methyl-1-[5-(3-methyltriazol-4-yl)-3-pyridyl]-6-oxo-pyridazine-3-carboxamide], the IC50 at SOS1 (setting [2]) was under 0.05 µM; on KRAS G12C::SOS1 (setting [3]) it was under 0.05 µM; in assay [1] (setting [4]), under 1 µM.

Turning to `[2H]C([2H])([2H])n1nncc1-c1cncc(-n2nc(C(=O)N[C@H](C)c3cc(N)cc(C(F)F)c3)ccc2=O)c1` [Example 1-4, N-[(1R)-1-[3-amino-5-(difluoromethyl)phenyl]ethyl]-6-oxo-1-[5-[3-(trideuteriomethyl)triazol-4-yl]-3-pyridyl]pyridazine-3-carboxamide], the IC50 at SOS1 (setting [2]) is 0.05 to 0.15 µM; on KRAS G12C::SOS1 (setting [3]), under 0.05 µM; in assay [1] (setting [4]), over 3 µM.

For the molecule `C[C@@H](NC(=O)c1cc(C2=CCCCC2)c(=O)n(-c2cncc(-c3cnnn3C)c2)c1)c1cccc(C(F)(F)F)c1F` [Example 15, N-{(R)-1-[2-fluoro-3-(trifluoromethyl)phenyl]ethyl}-5-(1-cyclohexen-1-yl)-5'-(1-methyl-1H-1,2,3-triazol-5-yl)-6-oxo-1H-[1,3'-bipyridyl]-3-carboxamide], the IC50 on SOS1 (setting [2]) is under 0.05 µM; on KRAS G12C::SOS1 (setting [3]), under 0.05 µM; in assay [1] (setting [4]), under 1 µM.

Consider `C[C@@H](NC(=O)c1ccc(=O)n(-c2cncc(-c3cnnn3C3CC3)c2)n1)c1cccc(C(F)(F)F)c1F` [Example 1-50, N-[(1R)-1-[2-fluoro-3-(trifluoromethyl)phenyl]ethyl]-1-[5-(1-cyclopropyl-1H-1,2,3-triazol-5-yl)-3-pyridyl]-6-oxo-pyridazine-3-carboxamide], for which the IC50 on SOS1 (setting [2]) was under 0.05 µM; at KRAS G12C::SOS1 (setting [3]) it was under 0.05 µM; in assay [1] (setting [4]), under 1 µM.

`[2H]C([2H])([2H])c1cc(C(=O)N[C@H](C)c2cccc(C(F)(F)F)c2F)nn(-c2cncc(-c3cnnn3C)c2)c1=O` [Example 7-1, N-{(R)-1-[2-fluoro-3-(trifluoromethyl)phenyl]ethyl}-5-[methyl-trideuterio]-1-[5-(1-methyl-1H-1,2,3-triazol-5-yl)-3-pyridyl]-6-oxo-1,6-dihydropyridazine-3-carboxamide]: the IC50 is 0.05 to 0.15 µM at SOS1 (setting [2]), 0.05 to 0.15 µM on KRAS G12C::SOS1 (setting [3]) and under 1 µM in assay [1] (setting [4]).

Take `CCn1nncc1-c1cncc(-n2nc(C(=O)N[C@H](C)c3cccc(C(F)(F)F)c3F)cc(C)c2=O)c1` [Example 1-25, 1-[5-(3-ethyltriazol-4-yl)-3-pyridyl]-N-[(1R)-1-[2-fluoro-3-(trifluoromethyl)phenyl]ethyl]-5-methyl-6-oxo-pyridazine-3-carboxamide]: the IC50 at SOS1 (setting [2]) was under 0.05 µM; on KRAS G12C::SOS1 (setting [3]), 0.05 to 0.15 µM; in assay [1] (setting [4]) it was under 1 µM.

Take “N-[(1R)-1-[5-amino-3-(difluoromethyl)-2-fluoro-phenyl]ethyl]-5-methyl-1-[5-(3-methyltriazol-4-yl)-3-pyridyl]-6-oxo-pyridazine-3-carboxamide [Example 2-3]”: the IC50 is under 0.05 µM on SOS1 (setting [2]); under 0.05 µM at KRAS G12C::SOS1 (setting [3]); under 1 µM in assay [1] (3D spheroids, 0.002-10 µM, 5 days).

As for `C[C@@H](NC(=O)c1ccc(=O)n(-c2cncc(-c3cnnn3C)c2)n1)c1cccc(C(F)F)c1F` [Example 1-1, N-[(1R)-1-[3-(difluoromethyl)-2-fluoro-phenyl]ethyl]-1-[5-(3-methyltriazol-4-yl)-3-pyridyl]-6-oxo-pyridazine-3-carboxamide], the IC50 is 0.05 to 0.15 µM on SOS1 (setting [2]), under 0.05 µM on KRAS G12C::SOS1 (setting [3]) and under 1 µM in assay [1] (setting [4]).

As for `CCn1nncc1-c1cncc(-n2nc(C(=O)N[C@H](C)c3cccc(C(F)(F)F)c3F)cc(CO)c2=O)c1` [Example 6-4, N-{ (R)-1-[2-fluoro-3-(trifluoromethyl)phenyl]ethyl}-1-[5-(1-ethyl-1H-1,2,3-triazol-5-yl)-3-pyridyl]-5-(hydroxymethyl)-6-oxo-1,6-dihydropyridazine-3-carboxamide], the IC50 was under 0.05 µM on SOS1 (setting [2]), 0.05 to 0.15 µM on KRAS G12C::SOS1 (setting [3]) and under 1 µM in assay [1] (setting [4]).

Consider `Cc1ncc(-n2nc(C(=O)N[C@H](C)c3cccc(C(F)(F)CO)c3F)ccc2=O)cc1-c1cnnn1C` [Example 1-29], for which the IC50 at SOS1 (setting [2]) was 0.05 to 0.15 µM; on KRAS G12C::SOS1 (setting [3]), under 0.05 µM; in assay [1] (setting [4]), under 1 µM.

On to `[2H]C([2H])([2H])n1nncc1-c1cncc(-n2nc(C(=O)N[C@H](C)c3cc(N)cc(C(F)(F)F)c3)ccc2=O)c1` [Example 1-58], for which the IC50 was under 0.05 µM at SOS1 (setting [2]), under 0.05 µM at KRAS G12C::SOS1 (setting [3]) and under 1 µM in assay [1] (setting [4]).

`Cc1cc(C(=O)N[C@H](C)c2cccc(C(F)(F)CO)c2F)nn(-c2cncc(-c3cnnn3C(C)C)c2)c1=O` [Example 1-39, N-{(R)-1-[3-(1,1-difluoro-2-hydroxyethyl)-2-fluorophenyl]ethyl}-1-[5-(1-isopropyl-1H-1,2,3-triazol-5-yl)-3-pyridyl]-5-methyl-6-oxo-1,6-dihydropyridazine-3-carboxamide]: the figures for the IC50 (at SOS1 (setting [2]); at KRAS G12C::SOS1 (setting [3]); in assay [1] (setting [4])) were under 0.05 µM, under 0.05 µM and under 1 µM, respectively.

With `CCc1cc(C(=O)N[C@H](C)c2cccc(C(F)(F)CO)c2F)nn(-c2cncc(-c3cnnn3C3CC3)c2)c1=O` [Example 1-42, N-{(R)-1-[3-(1,1-difluoro-2-hydroxyethyl)-2-fluorophenyl]ethyl}-1-[5-(1-cyclopropyl-1H-1,2,3-triazol-5-yl)-3-pyridyl]-5-ethyl-6-oxo-1,6-dihydropyridazine-3-carboxamide], the values for the IC50 (at SOS1 (setting [2]); at KRAS G12C::SOS1 (setting [3]); in assay [1] (setting [4])) were under 0.05 µM, under 0.05 µM and under 1 µM, respectively.
